The test system of assay [1] is AHAS. Kind of assay: Inhibition of AHAS activity in RH44 lentil by imidazolinone herbicides. Format: biochemical, lentil (Lens culinaris). To be noted: RH44 lentil variety, compared with wild type CDC Richlea (FIG. 4, FIG. 5). From the text: (§1) FIG. 4 is a graph showing the inhibition of AHAS activity in RH44 and CDC Richlea lentil plants by increasing concentrations of imazapic.
(§2) FIG. 5 is a graph showing the inhibition of AHAS activity in RH44 and CDC Richlea lentil plants by increasing concentrations of imazethapyr.
(§3) The AHAS activity in the wild type CDC Richlea lentil variety was inhibited by imazapic (CADRE®)) (FIG. 4) and imazethapyr (PURSUIT®) (FIG. 5) representative of all imidazolinone herbicides.
It is therefore likely that the gene primarily responsible for AHAS activity in the RH44 lentil has undergone a point mutation similar to that observed in corn, wheat and canola. This has made the isozyme coded for by this sequence resistant to imidazolinone inhibition. The wild type isozyme has no such mutation and therefore is susceptible to imidazolinone herbicide. Such a scenario would explain why AHAS activity drops 30 to 40% with the addition of maximum concentrations of imidazolinone herbicides.

Assay [2] concerns AHAS. As to the kind of experiment: Inhibition of AHAS activity in wild type CDC Richlea lentil by imidazolinone herbicides. Format: biochemical, lentil (Lens culinaris). To be noted: wild type CDC Richlea lentil variety; increasing herbicide concentrations (FIG. 4, FIG. 5).
Excerpt: as §1, §2, §3

Assay [3] relates to AHAS. Kind of assay: Negative feedback inhibition assay of AHAS activity. The assay is classed as biochemical, RH44 lentil and CDC Richlea lentil varieties. Particulars: leucine and valine addition (FIG. 3). From the text: FIG. 3 is a graph showing the inhibition of AHAS activity in RH44 and CDC Richlea lentil plants by a negative feedback inhibition assay.
The responses of the RH44 lentil variety and the CDC Richlea variety were identical in a negative feedback inhibition assay. As described earlier, AHAS is an enzyme active in the biosynthesis of leucine and valine. Under conditions of excess leucine and/or valine, the activity of AHAS is diminished. The ability of leucine and valine addition to inhibit AHAS activity was the same in the RH44 lentil and CDC Richlea lentil varieties, indicating very similar levels of expression and a lack of any discernible difference in AHAS function (FIG. 3).

In the next assay the test system is transgenic rice. Particulars: cited from earlier work.

For the compound `CCc1cnc(C2=NC(C)(C(C)C)C(=O)N2)c(C(=O)O)c1` (centres unmarked) [imazethapyr], the figures for the “inhibition of AHAS activity” value in the assay on AHAS [1] and with AHAS [2] were “not to the same extent as for the wild type lentil CDC Richlea” and “inhibited”, respectively.
Take `CC(C)C[C@H](N)C(=O)O` [leucine]: in the assay with AHAS [3], the “ability to inhibit AHAS activity, RH44 versus CDC Richlea” value is “the same”.
As for `CC(C)[C@H](N)C(=O)O` [valine], the “ability to inhibit AHAS activity, RH44 versus CDC Richlea” value with AHAS [3] is reported as “the same”.
As to `Cc1cnc(C2=NC(=O)C(C)(C(C)C)N2)c(C(=O)O)c1` (centres unmarked) [imazapic], the “inhibition of AHAS activity” value in the assay on AHAS [1] was “not to the same extent as for the wild type lentil CDC Richlea”; in the assay on AHAS [2], “inhibited”.
Turning to `COc1nc(C)nc(NC(=O)NS(=O)(=O)c2ccccc2Cl)n1` [chlorsulfuron], the “differences in in vitro resistance” value with transgenic rice (Arabidopsis ALS promoter replaced with the CaMV35S promoter) is given as 40 fold. In addition, the “increase in in vitro resistance” value with transgenic rice (transgenic rice containing a 35S/ALS transgene) is recorded as 200 fold.

The values are drawn from USRE45340E1, “Lentil plants having increased resistance to imidazolinone herbicides” (University of Saskatchewan, priority 2001, dated 2015).
